Here are results for 29 compounds from patent US10052306B2 (LUC THERAPEUTICS, INC., priority 2013, dated 2018).

Where two headings read alike, the source gives them in different places.

Assay [1] deals with NR1/NR2B (Homo sapiens (Human), UniProt Q05586+Q13224). The assay can be described thus: Cell assay: FDSS Ca2+ influx inhibition in HEK293 cells expressing NR1/NR2B.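 Also: Fluo-8 Ca2+ signal read on Hamamatsu FDSS 6000 after glutamate, glycine and Ca2+ challenge following 10 min compound preincubation, end/baseline fluorescence ratio compared with MK801 control.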 The following applies: Ca2+ influx.
Chain of NR1/NR2B (Homo sapiens (Human), UniProt Q05586+Q13224) (Q13224 27-1484, other chains not shown): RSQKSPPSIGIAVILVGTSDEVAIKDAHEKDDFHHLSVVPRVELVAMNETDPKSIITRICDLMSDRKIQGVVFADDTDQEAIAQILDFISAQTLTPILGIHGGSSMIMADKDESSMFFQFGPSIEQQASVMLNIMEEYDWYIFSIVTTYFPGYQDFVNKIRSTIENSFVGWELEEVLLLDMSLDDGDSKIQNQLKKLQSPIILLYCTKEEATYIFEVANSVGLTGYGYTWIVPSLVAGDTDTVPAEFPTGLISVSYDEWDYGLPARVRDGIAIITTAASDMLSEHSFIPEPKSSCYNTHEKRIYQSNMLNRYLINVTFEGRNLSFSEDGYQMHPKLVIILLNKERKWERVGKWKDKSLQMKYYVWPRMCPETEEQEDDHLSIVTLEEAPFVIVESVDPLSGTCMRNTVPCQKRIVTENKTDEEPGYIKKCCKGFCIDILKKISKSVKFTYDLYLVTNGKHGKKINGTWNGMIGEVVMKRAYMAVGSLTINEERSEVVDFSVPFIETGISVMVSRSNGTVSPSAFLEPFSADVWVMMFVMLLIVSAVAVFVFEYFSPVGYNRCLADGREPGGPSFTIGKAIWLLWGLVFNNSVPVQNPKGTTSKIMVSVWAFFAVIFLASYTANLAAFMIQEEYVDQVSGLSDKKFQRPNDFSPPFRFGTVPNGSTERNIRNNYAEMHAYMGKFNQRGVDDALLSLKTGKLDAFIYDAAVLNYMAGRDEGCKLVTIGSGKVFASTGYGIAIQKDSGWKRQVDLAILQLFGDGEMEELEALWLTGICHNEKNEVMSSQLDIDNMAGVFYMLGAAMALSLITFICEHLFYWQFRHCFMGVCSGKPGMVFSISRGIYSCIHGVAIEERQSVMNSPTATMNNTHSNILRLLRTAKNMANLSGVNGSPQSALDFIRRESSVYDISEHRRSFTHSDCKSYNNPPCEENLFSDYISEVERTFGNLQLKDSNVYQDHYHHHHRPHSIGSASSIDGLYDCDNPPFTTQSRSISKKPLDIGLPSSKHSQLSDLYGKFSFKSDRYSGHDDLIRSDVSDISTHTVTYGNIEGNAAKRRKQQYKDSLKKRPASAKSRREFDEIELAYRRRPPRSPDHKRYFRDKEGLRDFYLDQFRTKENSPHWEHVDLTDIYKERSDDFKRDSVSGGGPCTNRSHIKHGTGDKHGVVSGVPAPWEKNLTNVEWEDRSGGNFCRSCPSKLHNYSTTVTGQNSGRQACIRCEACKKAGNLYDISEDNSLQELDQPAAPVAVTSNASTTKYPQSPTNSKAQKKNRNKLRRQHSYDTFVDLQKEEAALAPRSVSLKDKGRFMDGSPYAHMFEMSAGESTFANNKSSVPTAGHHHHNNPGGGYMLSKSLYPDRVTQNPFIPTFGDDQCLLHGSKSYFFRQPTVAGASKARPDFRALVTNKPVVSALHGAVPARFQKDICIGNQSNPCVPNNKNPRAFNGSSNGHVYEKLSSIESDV
Assay [2] addresses NR1/NR2B (Homo sapiens (Human), UniProt Q13224). Described as above.
[3] abbreviates: Binned Activity, HEK293 cells expressing NR1/NR2B, binned NR2B NAM IC50.
Where [4] appears, read: read-out: NR2B NAM IC50, HEK293 cells expressing NR1/NR2B, Ca2+ influx.
[5] abbreviates: read-out: Binned Activity, HEK293 cells expressing NR1/NR2B, Ca2+ influx, binned NR2B NAM IC50.
[6] abbreviates: NR2B NAM IC50, HEK293 cells expressing NR1/NR2B.

Chain of NR1/NR2B (Homo sapiens (Human), UniProt Q13224) (Q13224 27-1484, other chains not shown): as above

As to `COc1ccc(-c2ccc(C(=O)CN3C[C@@H]4C[C@@](O)(Cc5ccccc5)C[C@@H]4C3)cc2)cc1` [Example 259, 2-((3aR,5r,6aS)-5-benzyl-5-hydroxyhexahydrocyclo-penta[c]pyrrol-2(1H)-yl)-1-(4′-methoxy-[1,1′-biphenyl]-4-yl)ethanone], the IC50 in assay [1] (setting [3]) was greater than 10 µM; in assay [2] (setting [4]) it was 10 µM.
The matching figures for `O=C(CN1C[C@H]2C[C@H](Cc3ccccc3)C[C@H]2C1)c1ccc(O)c(F)c1` [Example 308, 2-[(3aR,5R,6aS)-5-benzyl-octahydrocyclopenta[c]pyrrol-2-yl]-1-(3-fluoro-4-hydroxyphenyl) ethan-1-one]: less than 0.1 µM and 0.0522 µM.
For `O=C(CN1C[C@@H]2C[C@@](O)(Cc3ccccc3)C[C@@H]2C1)c1ccc(O)cn1` [Example 140, 2-((3aR,5r,6S)-5-benzyl-5-hydroxyhexahydrocyclo-penta[c]pyrrol-2(1H)-yl)-1-(5-hydroxypyridin-2-yl)ethanone] the same measures were 1 to 10 µM and 6.94 µM.
The matching figures for `COc1cccc(C[C@]2(O)C[C@H]3CN(CC(=O)c4ccc(O)cn4)C[C@H]3C2)c1` [Example 193, 2-((3aR,5r,6aS)-5-hydroxy-5-(3-meth-oxybenzyl)hexahydro-cyclopenta[c]pyrrol-2(1H)-yl)-1-(5-hydroxypyridin-2-yl)ethanone]: greater than 10 µM and 10 µM.
Consider `Cc1cccc(N2C[C@@H]3C[C@@](O)(c4ccc(C(C)(C)C)cc4)C[C@@H]3C2)n1` [Example 89, 5-(4-tert-butylphenyl)-2-(6-methylpyridin-2-yl)-octahydrocyclopenta[c] pyrrol-5-ol], for which the IC50 in assay [1] (setting [3]) was greater than 10 µM; in assay [2] (setting [4]), 10 µM.
In the case of `O=C(CN1C[C@@H]2C[C@@](O)(Cc3ccccc3)C[C@@H]2C1)c1ccc(-c2ccccn2)cc1` [Example 266, 2-((3aR,5r,6aS)-5-benzyl-5-hydroxyhexahydrocyclo-prenta[c]pyrrol-2(1H)-yl)-1-(4-(pyridin-2-yl)phenyl)ethanone], the IC50 is greater than 10 µM in assay [1] (setting [3]) and 10 µM in assay [2] (setting [4]).
The matching figures for `O=C(CN1C[C@H]2C[C@@H](CCc3ccccc3)C[C@H]2C1)c1ccc(O)cc1` [Example 324, 1-(4-hydroxyphenyl)-2-((3aR,5r,6aS)-5-phenethylhexa-hydrocyclo-penta[c]pyrrol-2(1H)-yl)ethanone]: 0.1 to 1 µM and 0.215 µM.
The matching figures for `O=C(CN1C[C@@H]2C[C@@](O)(Cc3ccccc3F)C[C@@H]2C1)c1ccc(O)cn1` [Example 221, 2-(5-(2-fluorobenzyl)-5-hydroxyhexahydrocyclo-penta[c]pyrrol-2(1H)-yl)-1-(5-hydroxypyridin-2-yl)ethanone]: 0.1 to 1 µM and 0.998 µM.
For `Oc1ccc([C@@H](O)CN2C[C@@H]3C[C@@](O)(Cc4ccccc4)C[C@@H]3C2)nc1` [Example 1646, (3aR,5S,6aS)-5-benzyl-2-((S)-2-hydroxy-2-(5-hydroxypyridin-2-yl)ethyl)octahydrocyclo-penta[c]pyrrol-5-ol] the same measures were less than 0.1 µM and 0.0381 µM.
For the compound `Cc1ccccc1[C@]1(O)C[C@H]2CN(C(=O)Nc3ccc(Cl)c(C(F)(F)F)c3)C[C@H]2C1` [Example 24, N-[4-chloro-3-(trifluoromethyl)phenyl]-5-hydroxy-5-(2-methylphenyl)-octahydrocyclopenta[c] pyrrole-2-carboxamide], the values for the IC50 in assay [1] (setting [3]) and in assay [2] (setting [4]) were greater than 10 µM and 10 µM, respectively.
The matching figures for `COc1cccc(NC(=O)N2C[C@@H]3C[C@@](O)(Cc4ccccc4)C[C@@H]3C2)c1` [Example 119, (3aR,5r,6aS)-5-benzyl-5-hydroxy-N-(3-methoxy-phenyl)hexahydro-cyclopenta[c]pyrrole-2(1H)-carboxamide]: greater than 10 µM and 10 µM.
For `Oc1ccc([C@H](O)CN2C[C@@H]3C[C@@](O)(Cc4ccccc4)C[C@@H]3C2)cc1` [Example 143, (3aR,5S,6aS)-5-benzyl-2-((S)-2-hydroxy-2-(4-hydroxyphenyl)ethyl)octa-hydrocyclopenta[c]pyrrol-5-ol], the IC50 in assay [2] (setting [5]) is less than 0.1 µM.
On to `O=C(CN1CC2CC(CCc3ccccc3)CC2C1)c1ccc(O)cc1` (stereo not shown) [Example 323, 1-(4-hydroxyphenyl)-2-(5-phenethyl-hexahydrocyclo-penta[c]pyrrol-2(1H)-yl)ethanone], for which the IC50 in assay [2] (setting [5]) was 0.1 to 1 µM; in assay [2] (setting [4]), 0.426 µM.
For `OC(CN1C[C@@H]2CC(O)(Cc3ccccc3)C[C@@H]2C1)c1ccc(F)cc1` (mixture of isomers) [Example 289, rac-(3aR,5r,6aS)-5-benzyl-2-(2-(4-fluorophenyl)-2-hydroxyethyl)octahydro-cyclopenta[c]pyrrol-5-ol] the same measures were greater than 10 µM and 10 µM.
For `O=C(CN1CC2CC(Cc3ccccc3)CC2C1)c1ccc(O)c(F)c1` (stereo not shown) [Example 299, 2-{5-benzyl-octahydrocyclopenta[c]pyrrol-2-yl}-1-(3-fluoro-4-hydroxyphenyl) ethan-1-one], the IC50 in assay [2] (read-out: Binned Activity) is less than 0.1 µM; in assay [2] (read-out: NR2B NAM IC50), 0.0781 µM.
As to `O=C(CN1CC2CC(O)(c3ccccc3)CC2C1)c1ccccc1` (stereo not shown) [Example 57, 2-(5-hydroxy-5-phenylhexahydrocyclo-penta[c]pyrrol-2(1H)-yl)-1-phenylethanone], the IC50 in assay [2] (setting [5]) is greater than 10 µM; in assay [2] (setting [4]), 10 µM.
`O=C(CN1CC2CC(Cc3ccccc3)CC2C1)c1ccc(O)cn1` (stereo not shown) [Example 297, 2-{5-benzyl-octahydrocyclopenta[c]pyrrol-2-yl}-1-(5-hydroxypyridin-2-yl)ethan-1-one]: the results for the IC50 in assay [2] (setting [5]) and in assay [2] (setting [4]) were 0.1 to 1 µM and 0.792 µM, respectively.
As for `COc1cccc([C@]2(O)C[C@H]3CN(C(=O)Nc4cccc(Cl)c4)C[C@H]3C2)c1` [Example 15], the IC50 in assay [1] (setting [3]) was greater than 10 µM.
Regarding `OC(CN1C[C@@H]2C[C@@](O)(Cc3ccccc3)C[C@@H]2C1)c1ccc(Cl)cc1Cl` (mixture of isomers) [Example 287, rac-(3aR,5r,6aS)-5-benzyl-2-(2-(2,4-dichlorophenyl)-2-hydroxyethyl)octahydro-cyclopenta[c]pyrrol-5-ol], the IC50 in assay [1] (setting [3]) was greater than 10 µM; in assay [1] (setting [6]), no less than 10 µM.
The matching figures for `OC(CN1C[C@@H]2C[C@@](O)(c3ccccc3)C[C@@H]2C1)c1cccc(F)c1` (mixture of isomers) [Example 64, rac-2-[2-(3-fluorophenyl)-2-hydroxyethyl]-5-phenyl-octahydrocyclopenta[c] pyrrol-5-ol]: greater than 10 µM and no less than 10 µM.
For `Oc1cnc(C(O)CN2C[C@@H]3C[C@@](O)(Cc4ccccc4)C[C@@H]3C2)cn1` (mixture of isomers) [Example 188, rac-(3aR,5r,6aS)-5-benzyl-2-(2-hydroxy-2-(5-hydroxypyrazin-2-yl)ethyl)octahydrocyclo-penta[c]pyrrol-5-ol] the same measures were greater than 10 µM and no less than 10 µM.
For the compound `CC(C(O)c1ccc(O)cc1)N1C[C@@H]2C[C@](F)(Cc3ccccc3)C[C@@H]2C1` (mixture of isomers) [Example 318, rac-4-(2-((3aR,5s,6aS)-5-benzyl-5-fluoro-hexahydrocyclopen-ta[c]pyrrol-2(1H)-yl)-1-hydroxypropyl)phenol], the IC50 in assay [1] (setting [6]) worked out at 12.8 µM.
With `COc1cccc([C@]2(O)C[C@H]3CN(C(=O)Nc4cccnc4)C[C@H]3C2)c1` [Cmpd 46, 5-hydroxy-5-(3-methoxyphenyl)-N-(pyridin-3-yl)-octahydrocyclopenta[c] pyrrole-2-carboxamide], in assay [1] (setting [3]), the IC50 is greater than 10 µM.
For the compound `Cc1ccccc1[C@]1(O)C[C@H]2CN(C(C)C(=O)c3ccc(O)cc3)C[C@H]2C1` (mixture of isomers) [Example 94, rac-2-[5-hydroxy-5-(2-methylphenyl)-octahydrocyclopenta[c]pyrrol-2-yl]-1-(4-hydroxyphenyl)propan-1-one], the IC50 in assay [1] (setting [3]) was greater than 10 µM; in assay [1] (setting [6]) it was no less than 10 µM.
As for `Oc1ccc(C(O)CN2C[C@@H]3C[C@@](O)(Cc4ccccc4)C[C@@H]3C2)nc1F` (mixture of isomers) [Example 191, rac-(3aR,5r,6aS)-5-benzyl-2-(2-(6-fluoro-5-hydroxypyridin-2-yl)-2-hydroxyethyl)octahydro-cyclopenta[c]pyrrol-5-ol], in assay [1] (setting [6]), the IC50 is 0.171 µM.
Turning to `Oc1ccc(C(O)CN2C[C@@H]3C[C@@](O)(Cc4ccccc4)C[C@@H]3C2)nc1` (mixture of isomers) [Example 144, rac-(3aR,5r,6aS)-5-benzyl-2-(2-hydroxy-2-(5-hydroxypyridin-2-yl)ethyl)octahydrocyclo-penta[c]pyrrol-5-ol], the IC50 in assay [1] (setting [3]) is less than 0.1 µM; in assay [1] (setting [6]), 0.0268 µM.
In the case of `Oc1ccc(C(O)CN2C[C@@H]3C[C@@](O)(Cc4ccccc4Cl)C[C@@H]3C2)nc1` (mixture of isomers) [Example 246, rac-(3aR,5r,6aS)-5-(2-chlorobenzyl)-2-(2-hydroxy-2-(5-hydroxypyridin-2-yl)ethyl)octahydrocyclo-penta[c]pyrrol-5-ol], the IC50 in assay [1] (setting [6]) was 0.0503 µM.
Take `CC(C(O)c1ccc(O)cc1)N1C[C@@H]2C[C@@](O)(c3ccccc3)C[C@@H]2C1` (mixture of isomers) [Example 91, rac-2-(1-hydroxy-1-(4-hydroxyphenyl)propan-2-yl)-5-phenyloctahydrocyclo-penta[c]pyrrol-5-ol]: the IC50 in assay [1] (setting [3]) was greater than 10 µM; in assay [1] (setting [6]) it was no less than 10 µM.
The matching figures for `COc1cccc([C@]2(O)C[C@H]3CN(CC(O)c4cccc(F)c4)C[C@H]3C2)c1` (mixture of isomers) [Example 63, rac-2-[2-(3-fluorophenyl)-2-hydroxyethyl]-5-(3-methoxyphenyl)-octahydrocyclopenta[c] pyrrol-5-ol]: greater than 10 µM and no less than 10 µM.
